Numbers after ± are expanded uncertainties.
Assay: molar heat capacity at constant pressure; wn = mass fraction of the nth substance listed
Settings: Small (less than 1 g) adiabatic calorimetry

CCCCn1cc[n+](C)c1.[Br-] [1-butyl-3-methylimidazolium bromide] + O
molar heat capacity at constant pressure (80.69 K, Crystal, w2 = 0.00482): 98.89 ± 0.59 J/K/mol | molar heat capacity at constant pressure (80.93 K, Crystal, w2 = 0.0051): 98.9 ± 0.59 J/K/mol | molar heat capacity at constant pressure (81.42 K, Crystal, w2 = 0.0169): 89.1 ± 0.55 J/K/mol | molar heat capacity at constant pressure (82.79 K, 101.3 kPa, Glass, w2 = 0.00482): 103.56 ± 0.62 J/K/mol | molar heat capacity at constant pressure (83.2 K, Crystal, w2 = 0.00482): 100.65 ± 0.6 J/K/mol | molar heat capacity at constant pressure (83.26 K, Crystal, w2 = 0.0051): 100.45 ± 0.6 J/K/mol | molar heat capacity at constant pressure (83.41 K, Crystal, w2 = 0.0169): 90.19 ± 0.55 J/K/mol | molar heat capacity at constant pressure (84.28 K, Crystal, w2 = 0.0495): 71.58 ± 0.46 J/K/mol | molar heat capacity at constant pressure (85.01 K, 101.3 kPa, Glass, w2 = 0.00482): 105.32 ± 0.63 J/K/mol | molar heat capacity at constant pressure (85.41 K, Crystal, w2 = 0.0169): 91.5 ± 0.56 J/K/mol | molar heat capacity at constant pressure (85.62 K, Crystal, w2 = 0.0051): 101.93 ± 0.61 J/K/mol | molar heat capacity at constant pressure (85.71 K, Crystal, w2 = 0.00482): 102.22 ± 0.61 J/K/mol | molar heat capacity at constant pressure (86.99 K, Crystal, w2 = 0.0495): 72.97 ± 0.46 J/K/mol | molar heat capacity at constant pressure (87.41 K, Crystal, w2 = 0.0169): 92.8 ± 0.56 J/K/mol | molar heat capacity at constant pressure (87.51 K, 101.3 kPa, Glass, w2 = 0.00482): 107.36 ± 0.64 J/K/mol | molar heat capacity at constant pressure (87.99 K, Crystal, w2 = 0.0051): 103.55 ± 0.62 J/K/mol | molar heat capacity at constant pressure (88.22 K, Crystal, w2 = 0.00482): 103.95 ± 0.62 J/K/mol | molar heat capacity at constant pressure (89.41 K, Crystal, w2 = 0.0169): 94.12 ± 0.57 J/K/mol | molar heat capacity at constant pressure (89.64 K, Crystal, w2 = 0.0495): 74.29 ± 0.47 J/K/mol | molar heat capacity at constant pressure (90.01 K, 101.3 kPa, Glass, w2 = 0.00482): 109.3 ± 0.64 J/K/mol | molar heat capacity at constant pressure (90.39 K, Crystal, w2 = 0.0051): 105.19 ± 0.62 J/K/mol | molar heat capacity at constant pressure (90.73 K, Crystal, w2 = 0.00482): 105.63 ± 0.62 J/K/mol | molar heat capacity at constant pressure (91.42 K, Crystal, w2 = 0.0169): 95.27 ± 0.58 J/K/mol | molar heat capacity at constant pressure (92.3 K, Crystal, w2 = 0.0495): 75.61 ± 0.5 J/K/mol | molar heat capacity at constant pressure (92.52 K, 101.3 kPa, Glass, w2 = 0.00482): 111.32 ± 0.64 J/K/mol | molar heat capacity at constant pressure (92.8 K, Crystal, w2 = 0.0051): 106.81 ± 0.63 J/K/mol | molar heat capacity at constant pressure (93.24 K, Crystal, w2 = 0.00482): 107.29 ± 0.63 J/K/mol | molar heat capacity at constant pressure (93.42 K, Crystal, w2 = 0.0169): 96.43 ± 0.59 J/K/mol | molar heat capacity at constant pressure (94.99 K, Crystal, w2 = 0.0495): 76.9 ± 0.51 J/K/mol | molar heat capacity at constant pressure (95.02 K, 101.3 kPa, Glass, w2 = 0.00482): 113.23 ± 0.65 J/K/mol | molar heat capacity at constant pressure (95.24 K, Crystal, w2 = 0.0051): 108.32 ± 0.63 J/K/mol | molar heat capacity at constant pressure (95.42 K, Crystal, w2 = 0.0169): 97.66 ± 0.59 J/K/mol | molar heat capacity at constant pressure (95.77 K, Crystal, w2 = 0.00482): 108.86 ± 0.64 J/K/mol | molar heat capacity at constant pressure (97.43 K, Crystal, w2 = 0.0169): 98.68 ± 0.6 J/K/mol | molar heat capacity at constant pressure (97.68 K, Crystal, w2 = 0.0051): 109.8 ± 0.64 J/K/mol | molar heat capacity at constant pressure (97.69 K, Crystal, w2 = 0.0495): 78.16 ± 0.51 J/K/mol | molar heat capacity at constant pressure (98.29 K, Crystal, w2 = 0.00482): 110.42 ± 0.64 J/K/mol | molar heat capacity at constant pressure (99.44 K, Crystal, w2 = 0.0169): 99.85 ± 0.6 J/K/mol | molar heat capacity at constant pressure (99.79 K, 101.3 kPa, Glass, w2 = 0.00482): 116.7 ± 0.67 J/K/mol | molar heat capacity at constant pressure (100.14 K, Crystal, w2 = 0.0051): 111.32 ± 0.64 J/K/mol | molar heat capacity at constant pressure (100.41 K, Crystal, w2 = 0.0495): 79.41 ± 0.52 J/K/mol | molar heat capacity at constant pressure (100.82 K, Crystal, w2 = 0.00482): 111.94 ± 0.65 J/K/mol | molar heat capacity at constant pressure (101.45 K, Crystal, w2 = 0.0169): 101.05 ± 0.6 J/K/mol | molar heat capacity at constant pressure (102.06 K, 101.3 kPa, Glass, w2 = 0.00482): 118.31 ± 0.67 J/K/mol | molar heat capacity at constant pressure (102.61 K, Crystal, w2 = 0.0051): 112.8 ± 0.65 J/K/mol | molar heat capacity at constant pressure (103.15 K, Crystal, w2 = 0.0495): 80.66 ± 0.52 J/K/mol | molar heat capacity at constant pressure (103.35 K, Crystal, w2 = 0.00482): 113.4 ± 0.65 J/K/mol | molar heat capacity at constant pressure (103.46 K, Crystal, w2 = 0.0169): 102.17 ± 0.61 J/K/mol | molar heat capacity at constant pressure (104.58 K, 101.3 kPa, Glass, w2 = 0.00482): 120.07 ± 0.68 J/K/mol | molar heat capacity at constant pressure (105.09 K, Crystal, w2 = 0.0051): 114.19 ± 0.66 J/K/mol | molar heat capacity at constant pressure (105.47 K, Crystal, w2 = 0.0169): 103.12 ± 0.61 J/K/mol | molar heat capacity at constant pressure (105.88 K, Crystal, w2 = 0.00482): 114.89 ± 0.66 J/K/mol | molar heat capacity at constant pressure (105.9 K, Crystal, w2 = 0.0495): 81.82 ± 0.53 J/K/mol | molar heat capacity at constant pressure (107.1 K, 101.3 kPa, Glass, w2 = 0.00482): 121.78 ± 0.69 J/K/mol | molar heat capacity at constant pressure (107.49 K, Crystal, w2 = 0.0169): 104.29 ± 0.62 J/K/mol | molar heat capacity at constant pressure (107.59 K, Crystal, w2 = 0.0051): 115.72 ± 0.66 J/K/mol | molar heat capacity at constant pressure (108.42 K, Crystal, w2 = 0.00482): 116.33 ± 0.67 J/K/mol | molar heat capacity at constant pressure (108.67 K, Crystal, w2 = 0.0495): 83.08 ± 0.53 J/K/mol | molar heat capacity at constant pressure (109.51 K, Crystal, w2 = 0.0169): 105.26 ± 0.62 J/K/mol | molar heat capacity at constant pressure (109.63 K, 101.3 kPa, Glass, w2 = 0.00482): 123.51 ± 0.69 J/K/mol | molar heat capacity at constant pressure (110.1 K, Crystal, w2 = 0.0051): 117.14 ± 0.67 J/K/mol | molar heat capacity at constant pressure (110.97 K, Crystal, w2 = 0.00482): 117.75 ± 0.67 J/K/mol | molar heat capacity at constant pressure (111.45 K, Crystal, w2 = 0.0495): 84.27 ± 0.54 J/K/mol | molar heat capacity at constant pressure (111.54 K, Crystal, w2 = 0.0169): 106.2 ± 0.62 J/K/mol | molar heat capacity at constant pressure (112.16 K, 101.3 kPa, Glass, w2 = 0.00482): 125.21 ± 0.7 J/K/mol | molar heat capacity at constant pressure (112.61 K, Crystal, w2 = 0.0051): 118.54 ± 0.67 J/K/mol | molar heat capacity at constant pressure (113.51 K, Crystal, w2 = 0.00482): 119.17 ± 0.68 J/K/mol | molar heat capacity at constant pressure (113.57 K, Crystal, w2 = 0.0169): 107.35 ± 0.63 J/K/mol | molar heat capacity at constant pressure (114.24 K, Crystal, w2 = 0.0495): 85.5 ± 0.54 J/K/mol | molar heat capacity at constant pressure (114.69 K, 101.3 kPa, Glass, w2 = 0.00482): 126.86 ± 0.71 J/K/mol | molar heat capacity at constant pressure (115.14 K, Crystal, w2 = 0.0051): 119.96 ± 0.68 J/K/mol | molar heat capacity at constant pressure (115.6 K, Crystal, w2 = 0.0169): 108.36 ± 0.63 J/K/mol

Reference: the NIST ThermoML archive (doi:10.1016/j.jct.2006.05.008)
